{"source": "patent US8765798B2", "about": "“Peptide derivatives with therapeutic activity” (Flamma S.p.A., priority 2006, dated 2014)", "test": "carbonyl-quenching activity on HNE in vitro (residual HNE by reversed-phase chromatography)", "settings": "for reacted HNE (%) t = 1 h mean / reacted HNE (%) t = 3 h mean / reacted HNE (%) t = 2 h mean: HNE 50 μM, compound 1 mM, phosphate buffer 10 mM pH 7.4, 37° C.; for reacted HNE (%) t = 1 h mean: one hour incubation; for reacted HNE (%) t = 3 h mean: three hours incubation; for reacted HNE (%) t = 2 h mean: two hours incubation", "method": "The pharmacological activity of the compounds of the invention was determined in vitro evaluating their carbonyl-quenching activity on 4-hydroxy nonenal (HNE), which is known to be involved in a number of pathologies.\nThe carbonyl-quenching activity of a selected series of compounds of the present invention was assessed in vitro, incubating HNE (50 μM) with the tested compounds (1 mM), in phosphate buffer (10 mM) pH 7.4 at 37° C. The activity was evaluated after one, two and three hours incubation, determining the residual content of HNE by reversed-phase chromatography as described by Aldini G et al. [Biochem Biophys Res Commun. 2002 Nov. 15; 298(5):699-706]. The carbonyl-quenching activity is expressed as the reacted HNE percent compared with the HNE content in the absence of the test compounds.", "data": [{"smiles": "NCCC(=O)N[C@@H](Cc1cnc[nH]1)C(=O)O", "note": "[Carnosine, reference compound]", "values": [{"measurement": "reacted HNE (%) t = 1 h mean", "value": 17.39, "unit": "%"}, {"measurement": "reacted HNE (%) t = 3 h mean", "value": 43.59, "unit": "%"}, {"measurement": "reacted HNE (%) t = 2 h mean", "value": 31.65, "unit": "%"}]}, {"smiles": "C[C@H](N)CC(=O)N[C@H](Cc1c[nH]cn1)C(=O)O", "note": "[FL-926-A-002, (3S)-3-aminobutanoyl-D-histidine]", "values": [{"measurement": "reacted HNE (%) t = 1 h mean", "value": 6.568, "unit": "%"}, {"measurement": "reacted HNE (%) t = 3 h mean", "value": 21.58, "unit": "%"}, {"measurement": "reacted HNE (%) t = 2 h mean", "value": 14.26, "unit": "%"}]}, {"smiles": "N[C@@H](Cc1ccccc1)[C@@H](O)C(=O)N[C@H](Cc1c[nH]cn1)C(=O)O", "note": "[FL-926-A-005, (2R,3S)-3-amino-2-hydroxy-4-phenylbutanoyl-D-histidine]", "values": [{"measurement": "reacted HNE (%) t = 1 h mean", "value": 15.2, "unit": "%"}, {"measurement": "reacted HNE (%) t = 3 h mean", "value": 38.56, "unit": "%"}, {"measurement": "reacted HNE (%) t = 2 h mean", "value": 27.75, "unit": "%"}]}, {"smiles": "N[C@@H](CC(=O)N[C@H](Cc1c[nH]cn1)C(=O)O)c1ccccc1", "note": "[FL-926-A-006, (3S)-3-amino-3-phenylpropanoyl-D-histidine]", "values": [{"measurement": "reacted HNE (%) t = 1 h mean", "value": 29.3, "unit": "%"}, {"measurement": "reacted HNE (%) t = 3 h mean", "value": 65.8531, "unit": "%"}, {"measurement": "reacted HNE (%) t = 2 h mean", "value": 50.7209, "unit": "%"}, {"measurement": "carbonyl-quenching activity compared with carnosine", "setting": "after one hour incubation", "value": "almost twice as high"}]}]}
